Patent US8334316B2, “Substituted organosulfur compounds and methods of using thereof” (ACEA Biosciences, Inc., priority 2004, dated 2012)

How the values were obtained:
Assay type in all cases: cell-based
[1] = test system: MCF7 (human breast cancer cell line); assay: RT-CES system cell proliferation/cytotoxicity IC50, MCF7; conditions: time point of maximum inhibition
Excerpt: (§1) The RT-CES system comprises three components, an electronic sensor analyzer, a device station and 16× or 96× microtiter plate devices. Microelectrode sensor array was fabricated on glass slides with lithographical microfabrication methods and the electrode-containing slides are assembled to plastic trays to form electrode-containing wells. Each 16× (or 96×) microtiter plate device used in RT-CES system comprises up to 16 (or 96) such electrode-containing wells. The device station receives the 16× or 96× microtiter plate devices and is capable of electronically switching any one of the wells to the sensor analyzer for impedance measurement. In operation, the devices with cells cultured in the wells are placed into a device station that is located inside an incubator. Electrical cables connect the device station to the sensor analyzer. Under the RT-CES software control, the sensor analyzer can automatically select wells to be measured and continuously conduct impedance measurements. The impedance data from the analyzer is transferred to a computer, analyzed and processed by the integrated software.
(§2) To quantify cell status based on the measured cell-electrode impedance, a parameter termed Cell Index is derived, according to
(§3) [formula] where Rb(f) and Rcell(f) are the frequency dependent electrode resistances (a component of impedance) without cells or with cell present, respectively. N is the number of the frequency points at which the impedance is measured. Thus, Cell Index is a quantitative measure of the status of the cells in an electrode-containing well. Under the same physiological conditions, more cells attached on to the electrodes leads to larger Rcell(f) value, leading to a larger value for Cell Index. Furthermore, for the same number of cells present in the well, a change in the cell status such as morphology will lead to a change in the Cell Index. For example, an increase in cell adhesion or cell spreading leads to larger cell-electrode contact area which will lead to an increase in Rcell(f) and thus a larger value for Cell Index. The Cell Index may also be calculated using a formula different from the one described here. Other methods for calculating the Cell Index based on impedance measurement can be found in PCT application number PCT/US04/37696, fined on Nov. 12, 2004, PCT application number PCT/US05/04481, filed on Feb. 9, 2005, U.S. patent application Ser. No. 10/987,732, filed on Nov. 12, 2004, and U.S. patent application Ser. No. 11/055,639, filed on Feb. 9, 2005.
(§4) MCF-7 cells (human breast cancer cells) were seeded into wells of 16× or 96× microtiter plate devices (electronic plates, i.e., the plates comprise microelectrode sensor arrays in the wells of the plate) with an initial seeding density of 10,000 cells per well and were pre-incubated in incubator under standard cell culture conditions for about 44 hrs. Dibenzyl trisulfide solution in DMSO was added into wells following the incubation period. The cell status was monitored prior to and after the compound addition using RT-CES system. The cell indexes of different wells were between 1.2 and 1.5 just before the compound addition. […] The cell index was normalized against the cell index values at a time point just after compound addition (about 44.5 hrs after cell seeding).
(§5) For the assay performed on the RT-CES system, the cells were seeded into the 16× or 96× microtiter plate devices (electronic plates, i.e., the plates comprise microelectrode sensor arrays in the wells of the plate) at the seeding density ranging from 5000 cells/well to 15,000 cells/well. The cells were incubated at 5% CO2 and 37° C. for overnight till the cell indices reached the growth phase where the cell index was between 0.8 and 1.2. Serially diluted compounds were then added to the cells followed by dynamic monitoring of the effect of the compounds on the cell proliferation and cytotoxicity. […]

[2] = test system: OVCAR4 (human ovarian cancer cell line); assay: RT-CES system cell proliferation/cytotoxicity IC50, OVCAR4; conditions: OVCAR-4, time point of maximum inhibition
Excerpt: as §1, §2, §3
as §4, with “OVCAR4” for “MCF-7”, “ovarian” for “breast”, “27” for “44”, “1.4” for “1.2”, “1.7” for “1.5”, “28” for “44.5”
as §5

[3] = test system: H460 (human non small cell lung cancer cell line); assay: MTT assay IC50 (48 h), H460; conditions: NCI-H460, H460, 48 hours
Experimental: (§6) In another assay format, a test compound is assayed for its cytotoxicity and/or cytostatic effect on certain cancer cell types, using endpoint assay methods. Cells in the NCI cancer cell panel may be used. Cells after a pre-incubation for certain length of time (for example, 8 hrs or 24 hrs) are incubated with a test compound at serially-diluted concentrations (for example, five 10-fold dilutions) for 24 hrs and/or 48 hrs, and/or other specific length of time. The dose dependent cytotoxicity and/or cytostatic effects of test compounds can then be tested and evaluated using the 3-(4,5-dimethylthiazol-2-yl)-2,5-diphenyltetrazolium bromide (MTT) assay method, as described by, for example, Boyd (In Principle of Practice of Oncology, Devita, J. T., Hellman, S. and Rosenberg S. A. (Eds), 1989, Vol, 3, PPO Update, No. 10).
(§7) The anticancer potency of DBTS and its derivatives were tested in 8 different types of human cancer cell lines using the RT-CES system and MTT assay. The 8 cancer cell lines were HT1080 (the human fibrosarcoma cell line), H460 (human non small cell lung cancer cell line), OVCAR4 (the human ovarian cancer cell line), MCF7 (human breast cancer cell line) MDA-MB231 (M231, the human breast cancer cell line) A2780 (the human […] cancer cell line) Jurkat (the human T cell leukemia cell line). The test DBTS derivatives include ACEA100107, ACEA100108, ACEA100109, ACEA100111, ACEA100115, ACEA100116, ACEA100117, ACEA100118, ACEA100119, and ACEA100120.
(§8) For the MTT assay, the cells were seeded into the regular 96× well plates at the cell seeding density ranging from 5000 cells/well to 15,000 cells/well. The cells were incubated at 5% CO2 and 37° C. for overnight. The derivatives were serially diluted and added to the cells. The treatment was terminated after 48 hours of incubation by adding MTT staining reagent. After 4 hours, the staining was stopped by the stop buffer and then the calorimetric measurement was carried out on a microtiter plate reader at dual wave length, 650 nm and 550 nm.

[4] = test system: Jurkat (human T cell leukemia cell line); assay: MTT assay IC50 (48 h), Jurkat
Experimental: as §6, §7, §8

A2780 cells = assay: MTT assay IC50 (48 h), A2780; conditions: Homo sapiens; A2780, 48 hours
Experimental: as §6, §7, §8

[5] = test system: MCF7 (human breast cancer cell line); assay: MTT assay IC50 (48 h), MCF7; conditions: MCF-7, 48 hours
Experimental: as §6, §7, §8

SMILES: Cc1cccc(CSSSCc2cccc(C)c2)c1 [ACEA100116, di(m-methylbenzyl)trisulfide]
- IC50 [1]: 2.75 µM
- IC50 [2]: 0.6 µM
- IC50 [3]: 5.4 µM
- IC50 [4]: 0.3 µM
- IC50 (A2780 cells): 0.8 µM
- IC50 [5]: > 50 µM

SMILES: FC(F)(F)c1cccc(CSSSCc2cccc(C(F)(F)F)c2)c1 [ACEA100117, Di(m-trifluoromethylbenzyl)trisulfide]
- IC50 [1]: 48.8 µM
- IC50 [2]: 33.5 µM
- IC50 [3]: > 50 µM
- IC50 [4]: 8 µM
- IC50 (A2780 cells): 11.7 µM
- IC50 [5]: > 50 µM

SMILES: Fc1ccc(CSSSCc2ccc(F)cc2)cc1 [ACEA100108, Di(p-fluorobenzyl)trisulfide]
- IC50 [1]: 2.15 µM
- IC50 [2]: 2 µM
- IC50 [3]: 10.2 µM
- IC50 [4]: 0.35 µM
- IC50 (A2780 cells): 4.7 µM
- IC50 [5]: > 50 µM

SMILES: Clc1ccc(CSSSCc2ccc(Cl)cc2)cc1 [ACEA100118, Di(p-chlorobenzyl)trisulfide]
- IC50 [1]: 4.4 µM
- IC50 [2]: 2.25 µM
- IC50 [3]: 7.95 µM
- IC50 [4]: 0.5 µM
- IC50 (A2780 cells): 0.8 µM
- IC50 [5]: > 50 µM

SMILES: c1ccc(CSSSCc2ccccc2)cc1 [DBTS, Dibenzyl trisulfide]
- IC50 [1]: 6.6 µM
- IC50 [2]: 1.75 µM
- IC50 [3]: 14.2 µM
- IC50 [4]: 0.35 µM
- IC50 (A2780 cells): 1.2 µM
- IC50 [5]: > 50 µM

SMILES: Clc1ccccc1CSSSCc1ccccc1Cl [ACEA100115, Di(o-chlorobenzyl)trisulfide]
- IC50 [1]: 7.8 µM
- IC50 [2]: 0.5 µM
- IC50 [3]: 11.8 µM
- IC50 [4]: 0.51 µM
- IC50 (A2780 cells): 1.5 µM
- IC50 [5]: > 50 µM
